Experiments:
Assay type in all cases: biochemical
wild type ROS1 = wild type ROS1 (Homo sapiens, UniProt P08922); assay: Inhibition of wild type ROS1 kinase, CisBio HTRF KinEASE-TK assay; details: read-out: ROS1 wT IC50
Description: (§1) The potency of a compound inhibiting wild type and exemplary mutant ROS1 kinases was determined using CisBio's HTRF Kinease-TK assay technology. […] No. […] No. […] Each kinase is incubated with 250 nM TK-substrate biotin (CisBio, Cat. No. 62TKOPEC) and 1 mM ATP along with test compound in a buffer consisting of 25 mM MOPS [pH 7.4], 5 mM MgCl2, 0.005% Triton X-100, and 2% DMSO in a volume of 8 μL. […] After a 1 hour incubation at 22° C., the extent of reaction was determined using a PerkinElmer EnVision multimode plate reader via HTRF dual wavelength detection, and the percent of control (POC) was calculated using a ratiometric emission factor. 100 POC is determined using no test compound and 0 POC is determined in the absence of enzyme.

G2032R ROS1 = G2032R ROS1 (Homo sapiens, UniProt P08922, G2032R); assay: Inhibition of G2032R ROS1 kinase, CisBio HTRF KinEASE-TK assay
Description: as §1

D2033N ROS1 = D2033N ROS1 (Homo sapiens, UniProt P08922, D2033N); assay: Inhibition of D2033N ROS1 kinase, CisBio HTRF KinEASE-TK assay
Description: as §1

L2026M ROS1 = L2026M ROS1 (Homo sapiens, UniProt P08922, L2026M); assay: Inhibition of L2026M ROS1 kinase, CisBio HTRF KinEASE-TK assay
Description: as §1

Sequence of G2032R ROS1 (P08922 1883-2347 G2032R limits assumed): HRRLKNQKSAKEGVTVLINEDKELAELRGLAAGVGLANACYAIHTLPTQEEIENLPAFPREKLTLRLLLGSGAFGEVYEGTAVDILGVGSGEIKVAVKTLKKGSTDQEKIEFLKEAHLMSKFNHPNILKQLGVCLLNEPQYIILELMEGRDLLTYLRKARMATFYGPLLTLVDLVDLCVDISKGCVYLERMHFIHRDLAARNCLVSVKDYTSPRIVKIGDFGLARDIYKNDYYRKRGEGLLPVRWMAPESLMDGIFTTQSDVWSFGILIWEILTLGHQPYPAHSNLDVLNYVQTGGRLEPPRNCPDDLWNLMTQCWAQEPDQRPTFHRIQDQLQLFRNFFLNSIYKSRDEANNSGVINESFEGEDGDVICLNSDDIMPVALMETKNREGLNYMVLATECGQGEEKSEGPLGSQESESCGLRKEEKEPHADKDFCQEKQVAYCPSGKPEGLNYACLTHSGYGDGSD
Sequence of D2033N ROS1 (P08922 28-2347 D2033N): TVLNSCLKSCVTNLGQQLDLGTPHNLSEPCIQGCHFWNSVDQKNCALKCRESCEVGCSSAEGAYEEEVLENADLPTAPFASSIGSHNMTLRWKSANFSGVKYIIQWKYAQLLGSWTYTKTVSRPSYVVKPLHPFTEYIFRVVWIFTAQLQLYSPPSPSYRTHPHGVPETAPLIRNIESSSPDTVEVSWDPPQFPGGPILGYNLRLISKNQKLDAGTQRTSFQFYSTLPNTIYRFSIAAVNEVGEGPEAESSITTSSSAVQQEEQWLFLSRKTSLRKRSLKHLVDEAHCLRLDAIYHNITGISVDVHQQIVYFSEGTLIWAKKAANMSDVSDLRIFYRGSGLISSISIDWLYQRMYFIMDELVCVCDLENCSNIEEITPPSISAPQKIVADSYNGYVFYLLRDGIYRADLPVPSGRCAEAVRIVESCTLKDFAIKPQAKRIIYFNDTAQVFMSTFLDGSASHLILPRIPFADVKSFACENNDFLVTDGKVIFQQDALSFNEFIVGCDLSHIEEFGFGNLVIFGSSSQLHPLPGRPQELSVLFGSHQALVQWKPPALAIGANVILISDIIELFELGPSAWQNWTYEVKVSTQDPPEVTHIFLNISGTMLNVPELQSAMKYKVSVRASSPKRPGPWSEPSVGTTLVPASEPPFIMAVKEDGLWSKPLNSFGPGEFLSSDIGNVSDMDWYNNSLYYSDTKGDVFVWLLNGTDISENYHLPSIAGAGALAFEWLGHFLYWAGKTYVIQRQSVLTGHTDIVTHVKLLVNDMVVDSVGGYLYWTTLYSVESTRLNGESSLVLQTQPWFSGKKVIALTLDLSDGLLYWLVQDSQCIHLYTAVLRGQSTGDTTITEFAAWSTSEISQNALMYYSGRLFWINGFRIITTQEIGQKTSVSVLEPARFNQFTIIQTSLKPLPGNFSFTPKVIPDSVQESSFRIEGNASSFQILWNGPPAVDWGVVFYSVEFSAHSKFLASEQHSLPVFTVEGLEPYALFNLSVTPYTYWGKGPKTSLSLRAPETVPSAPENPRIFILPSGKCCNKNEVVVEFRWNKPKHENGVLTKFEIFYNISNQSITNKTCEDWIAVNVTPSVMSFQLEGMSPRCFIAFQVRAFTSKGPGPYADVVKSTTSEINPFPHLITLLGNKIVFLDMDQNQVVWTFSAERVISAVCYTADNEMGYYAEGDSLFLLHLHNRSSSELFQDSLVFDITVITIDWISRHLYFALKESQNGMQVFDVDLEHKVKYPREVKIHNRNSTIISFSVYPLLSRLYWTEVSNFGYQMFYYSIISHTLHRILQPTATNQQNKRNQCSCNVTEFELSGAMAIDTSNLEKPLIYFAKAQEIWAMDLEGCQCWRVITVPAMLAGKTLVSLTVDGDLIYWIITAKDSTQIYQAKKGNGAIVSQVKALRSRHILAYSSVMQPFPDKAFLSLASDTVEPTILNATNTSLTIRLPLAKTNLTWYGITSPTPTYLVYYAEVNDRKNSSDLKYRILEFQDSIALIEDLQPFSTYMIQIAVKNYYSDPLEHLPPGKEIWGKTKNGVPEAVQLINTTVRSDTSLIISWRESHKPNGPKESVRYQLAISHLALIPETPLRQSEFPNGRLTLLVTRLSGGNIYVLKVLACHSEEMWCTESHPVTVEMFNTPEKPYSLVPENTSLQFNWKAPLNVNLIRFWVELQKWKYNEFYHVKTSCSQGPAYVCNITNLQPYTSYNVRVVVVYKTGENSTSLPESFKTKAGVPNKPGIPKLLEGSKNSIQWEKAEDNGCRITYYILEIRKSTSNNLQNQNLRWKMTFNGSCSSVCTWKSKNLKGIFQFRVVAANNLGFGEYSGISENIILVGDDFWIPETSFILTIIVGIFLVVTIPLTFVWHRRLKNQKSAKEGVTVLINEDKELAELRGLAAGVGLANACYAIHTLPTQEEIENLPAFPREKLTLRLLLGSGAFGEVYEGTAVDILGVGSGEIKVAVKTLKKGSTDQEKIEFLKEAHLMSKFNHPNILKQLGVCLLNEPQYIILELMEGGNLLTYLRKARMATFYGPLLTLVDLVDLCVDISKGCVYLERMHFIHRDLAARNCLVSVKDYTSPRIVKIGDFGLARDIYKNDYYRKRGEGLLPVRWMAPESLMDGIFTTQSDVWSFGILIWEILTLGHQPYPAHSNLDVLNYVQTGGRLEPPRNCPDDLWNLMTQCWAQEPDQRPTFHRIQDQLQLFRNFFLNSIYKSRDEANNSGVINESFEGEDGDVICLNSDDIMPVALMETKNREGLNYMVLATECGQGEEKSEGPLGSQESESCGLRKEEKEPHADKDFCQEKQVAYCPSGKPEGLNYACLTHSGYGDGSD
Sequence of wild type ROS1 (P08922 1883-2347 limits assumed): as the sequence (P08922 1883-2347 G2032R limits assumed) above, with R150G counted along it
Sequence of L2026M ROS1 (P08922 28-2347 L2026M): as the sequence (P08922 28-2347 D2033N) above, with L1999M, N2006D counted along it

| SMILES | IC50 (wild type ROS1) [µM] | IC50 (G2032R ROS1) [µM] | IC50 (D2033N ROS1) [µM] | IC50 (L2026M ROS1) [µM] |
| --- | --- | --- | --- | --- |
| O=C1NC[C@H](O)COc2ccc(F)cc2C2CC(F)(F)CN2c2ccn3ncc1c3n2 (single isomer, unassigned) [Compound 45] | 0.0061 | 0.114 | 0.0168 | 0.0046 |
| O=C1NCCCOc2cccc(n2)[C@H]2CCCN2c2ccn3ncc1c3n2 [Compound 2, (6R)-12-oxa-2,16,20,21,24,26-hexaazapentacyclo[16.5.2.1^7,11.0^2,6.0^21,25] hexacosa-1(24),7(26),8,10,18(25),19,22-heptaen-17-one] | 0.0803 | 1.06 | 0.0119 | 0.067 |
| O=C1NCCCOc2ncc(F)cc2[C@H]2CCCN2c2ccn3ncc1c3n2 [Compound 3, (6R)-9-fluoro-13-oxa-2,11,17,21,22,25-hexaazapentacyclo[17.5.2.0^2,6.0^7,12.0^22,26] hexacosa-1(25),7,9,11,19(26),20,23-heptaen-18-one] | 0.0012 | 0.0094 | 0.0003 | 0.0012 |
| CC(=O)N1CCOc2ccc(F)cc2[C@H]2CCCN2c2ccn3ncc(c3n2)C1 [Compound 22, 1-[(6R)-9-fluoro-13-oxa-2,16,20,21,24-pentaazapentacyclo[16.5.2.0^2,6.0^7,12.0^21,25]pentacosa-1(24),7,9,11,18(25),19,22-heptaen-16-yl]ethan-1-one] | 0.331 | 3.98 | 0.397 | 0.713 |

Continued, values first:

| IC50 (wild type ROS1) [µM] | IC50 (G2032R ROS1) [µM] | IC50 (D2033N ROS1) [µM] | IC50 (L2026M ROS1) [µM] | SMILES |
| --- | --- | --- | --- | --- |
| 0.0031 | 0.0292 | 0.0006 | 0.0029 | O=C1NC[C@@H](O)COc2ncc(F)cc2[C@H]2CCCN2c2ccn3ncc1c3n2 [Compound 7, (6R,15R)-9-fluoro-15-hydroxy-13-oxa-2,11,17,21,22,25-hexaazapentacyclo-[17.5.2.0^2,6.0^7,12.0^22,26]hexacosa-1(25),7,9,11,19(26),20,23-heptaen-18-one] |
| 0.0092 | 0.0986 | 0.0017 | 0.0102 | O=C1NCCOc2ncc(F)cc2[C@H]2CCCN2c2ccn3ncc1c3n2 [Compound 9, (6R)-9-fluoro-13-oxa-2,11,16,20,21,24-hexaazapentacyclo[16.5.2.0^2,6.0^7,12.0^21,25] pentacosa-1(24),7,9,11,18(25),19,22-heptaen-17-one] |
| 0.0289 | 0.107 | 0.0076 | 0.0303 | O=C1OCCOc2ncc(F)cc2[C@H]2CCCN2c2ccn3ncc1c3n2 [Compound 14] |
| 0.0024 | 0.0144 | 0.0012 | 0.0024 | O=C1NCC(F)(F)COc2ncc(F)cc2[C@H]2CCCN2c2ccn3ncc1c3n2 [Compound 19, (6R)-9,15,15-trifluoro-13-oxa-2,11,17,21,22,25-hexaazapentacyclo[17.5.2.0^2,6.0^7,12.0^22,26] hexacosa-1(25),7,9,11,19(26),20,23-heptaen-18-one] |
| 0.0025 | 0.0216 | 0.0028 | 0.0022 | O=C1NCCCOc2ccc(F)cc2[C@H]2CCCN2c2ccn3ncc1c3n2 [Compound 20, (6R)-9-fluoro-13-oxa-2,17,21,22,25-pentaazapentacyclo[17.5.2.0^2,6.0^7,12.0^22,26] hexacosa-1(25),7,9,11,19(26),20,23-heptaen-18-one] |
| 0.779 | 4.93 | 0.26 | 0.589 | C[C@H]1CNC(=O)c2cnn3ccc(nc23)N2CCC[C@@H]2c2cc(F)cn(c2=O)C1 [Compound 35, (6R,13S)-9-fluoro-13-methyl-2,11,15,19,20,23-hexaazapentacyclo [15.5.2.1^7,11.0^2,6.0^20,24]pentacosa-1(23),7,9,17(24),18,21-hexaene-16,25-dione] |
